The text below walks through data of patent US11208412B2 (DAEGU-GYEONGBUK MEDICAL INNOVATION FOUNDATION, priority 2017, dated 2021).

Assay in all cases: Kinase selectivity, DiscoverX scanMAX Kinase assay panel (% control)
Assay type in all cases: binding

Assay [1] addresses T1, kinases of the scanMAX Kinase assay panel (Homo sapiens, UniProt O15264).
T1 construct: purchased DiscoverX Co. (contract measurement) scanMAX Kinase assay panel
T1 sequence (O15264 1-365): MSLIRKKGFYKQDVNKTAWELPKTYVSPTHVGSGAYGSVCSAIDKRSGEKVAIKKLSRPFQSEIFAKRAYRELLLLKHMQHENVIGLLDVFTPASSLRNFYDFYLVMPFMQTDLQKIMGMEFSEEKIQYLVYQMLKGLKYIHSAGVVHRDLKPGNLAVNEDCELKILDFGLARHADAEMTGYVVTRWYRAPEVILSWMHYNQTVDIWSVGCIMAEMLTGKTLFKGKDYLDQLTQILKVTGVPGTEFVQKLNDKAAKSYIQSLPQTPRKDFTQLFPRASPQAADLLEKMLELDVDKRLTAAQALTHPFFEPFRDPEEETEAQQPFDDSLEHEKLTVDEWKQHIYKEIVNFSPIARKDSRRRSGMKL
Particulars: p38-delta; 1 uM. An outline of the steps: (§1)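 Compounds were tested at 1 uM (in DMSO) against each panel kinase. % control was calculated as (compound − positive control)/(negative control − positive control)×100, where the positive control gives 0% and DMSO gives 100%. Activity toward a kinase was called at % control <35%.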

For assay [2], the target named is T2, kinases of the scanMAX Kinase assay panel (Homo sapiens, UniProt P16591).
T2 construct: purchased DiscoverX Co. (contract measurement) scanMAX Kinase assay panel
T2 sequence (P16591 whole entry): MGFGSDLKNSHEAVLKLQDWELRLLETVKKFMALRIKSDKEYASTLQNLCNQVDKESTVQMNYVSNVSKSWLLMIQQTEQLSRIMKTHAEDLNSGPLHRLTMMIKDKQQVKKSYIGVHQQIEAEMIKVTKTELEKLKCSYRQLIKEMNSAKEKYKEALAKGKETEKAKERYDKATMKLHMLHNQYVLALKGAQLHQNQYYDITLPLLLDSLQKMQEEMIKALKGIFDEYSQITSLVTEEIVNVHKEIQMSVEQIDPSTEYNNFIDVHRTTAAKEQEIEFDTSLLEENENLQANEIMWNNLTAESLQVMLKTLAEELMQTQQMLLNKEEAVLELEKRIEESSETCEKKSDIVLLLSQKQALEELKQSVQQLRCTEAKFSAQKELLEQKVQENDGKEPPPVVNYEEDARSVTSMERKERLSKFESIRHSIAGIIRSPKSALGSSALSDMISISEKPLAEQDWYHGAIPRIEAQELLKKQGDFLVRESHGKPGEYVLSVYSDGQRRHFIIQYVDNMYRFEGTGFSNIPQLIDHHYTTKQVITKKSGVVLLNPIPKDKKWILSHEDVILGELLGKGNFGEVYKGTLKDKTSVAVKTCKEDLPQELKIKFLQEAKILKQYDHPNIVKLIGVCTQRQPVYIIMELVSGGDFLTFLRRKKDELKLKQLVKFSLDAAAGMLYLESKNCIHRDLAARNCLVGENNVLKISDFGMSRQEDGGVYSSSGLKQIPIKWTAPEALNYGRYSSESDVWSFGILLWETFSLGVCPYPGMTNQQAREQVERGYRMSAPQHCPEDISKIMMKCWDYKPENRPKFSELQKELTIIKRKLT
Particulars: FER; 1 uM. An outline of the steps: as §1

Assay [3] addresses T3, kinases of the scanMAX Kinase assay panel (Homo sapiens, UniProt P36888, K663Q).
T3 construct: purchased DiscoverX Co. (contract measurement) scanMAX Kinase assay panel
T3 sequence (P36888 27-993 K663Q): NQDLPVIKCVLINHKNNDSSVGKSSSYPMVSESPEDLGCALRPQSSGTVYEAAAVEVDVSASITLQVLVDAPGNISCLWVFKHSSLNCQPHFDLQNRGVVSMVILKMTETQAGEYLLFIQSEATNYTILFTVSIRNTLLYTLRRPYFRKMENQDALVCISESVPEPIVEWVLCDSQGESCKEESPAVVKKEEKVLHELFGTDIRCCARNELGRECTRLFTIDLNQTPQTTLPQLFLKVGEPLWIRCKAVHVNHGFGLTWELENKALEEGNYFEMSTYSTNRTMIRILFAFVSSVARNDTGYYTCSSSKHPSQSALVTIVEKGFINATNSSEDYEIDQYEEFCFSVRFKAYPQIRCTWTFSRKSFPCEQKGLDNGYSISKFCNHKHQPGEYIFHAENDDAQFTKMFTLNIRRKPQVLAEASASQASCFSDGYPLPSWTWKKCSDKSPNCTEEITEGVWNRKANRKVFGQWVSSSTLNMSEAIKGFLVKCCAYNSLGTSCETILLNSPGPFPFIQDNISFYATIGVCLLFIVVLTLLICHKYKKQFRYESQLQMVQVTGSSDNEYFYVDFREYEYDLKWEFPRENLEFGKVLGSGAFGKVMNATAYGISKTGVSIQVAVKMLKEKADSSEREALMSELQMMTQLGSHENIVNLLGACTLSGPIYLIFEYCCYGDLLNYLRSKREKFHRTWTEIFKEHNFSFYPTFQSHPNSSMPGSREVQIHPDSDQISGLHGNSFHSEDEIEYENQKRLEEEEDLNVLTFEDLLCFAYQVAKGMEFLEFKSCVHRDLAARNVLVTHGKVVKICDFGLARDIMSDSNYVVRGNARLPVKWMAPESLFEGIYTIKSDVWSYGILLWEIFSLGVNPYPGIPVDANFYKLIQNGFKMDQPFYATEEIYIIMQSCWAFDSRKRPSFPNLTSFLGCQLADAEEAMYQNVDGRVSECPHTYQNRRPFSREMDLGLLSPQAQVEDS
Particulars: FLT3(K663Q); 1 uM. An outline of the steps:
as §1

The target of assay [4] is T4, kinases of the scanMAX Kinase assay panel (Homo sapiens, UniProt Q07002).
T4 construct: purchased DiscoverX Co. (contract measurement) scanMAX Kinase assay panel
T4 sequence (Q07002 whole entry): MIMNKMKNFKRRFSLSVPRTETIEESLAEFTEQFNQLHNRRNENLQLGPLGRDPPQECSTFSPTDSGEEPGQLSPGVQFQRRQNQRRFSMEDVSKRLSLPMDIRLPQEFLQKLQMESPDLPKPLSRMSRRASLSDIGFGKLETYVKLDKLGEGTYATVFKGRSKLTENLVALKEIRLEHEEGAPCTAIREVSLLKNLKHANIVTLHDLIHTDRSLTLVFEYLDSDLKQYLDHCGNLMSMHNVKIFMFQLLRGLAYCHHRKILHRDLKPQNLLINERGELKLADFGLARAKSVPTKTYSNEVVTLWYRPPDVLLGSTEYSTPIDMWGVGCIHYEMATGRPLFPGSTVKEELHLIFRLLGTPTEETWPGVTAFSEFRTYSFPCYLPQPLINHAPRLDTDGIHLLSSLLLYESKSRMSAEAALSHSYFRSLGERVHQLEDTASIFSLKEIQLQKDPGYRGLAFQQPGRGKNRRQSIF
The conditions noted are these: PCTK3; 1 uM. The method, boiled down: as §1

In assay [5] the target is T5, kinases of the scanMAX Kinase assay panel (Homo sapiens, UniProt Q13523).
T5 construct: purchased DiscoverX Co. (contract measurement) scanMAX Kinase assay panel
T5 sequence (Q13523 whole entry): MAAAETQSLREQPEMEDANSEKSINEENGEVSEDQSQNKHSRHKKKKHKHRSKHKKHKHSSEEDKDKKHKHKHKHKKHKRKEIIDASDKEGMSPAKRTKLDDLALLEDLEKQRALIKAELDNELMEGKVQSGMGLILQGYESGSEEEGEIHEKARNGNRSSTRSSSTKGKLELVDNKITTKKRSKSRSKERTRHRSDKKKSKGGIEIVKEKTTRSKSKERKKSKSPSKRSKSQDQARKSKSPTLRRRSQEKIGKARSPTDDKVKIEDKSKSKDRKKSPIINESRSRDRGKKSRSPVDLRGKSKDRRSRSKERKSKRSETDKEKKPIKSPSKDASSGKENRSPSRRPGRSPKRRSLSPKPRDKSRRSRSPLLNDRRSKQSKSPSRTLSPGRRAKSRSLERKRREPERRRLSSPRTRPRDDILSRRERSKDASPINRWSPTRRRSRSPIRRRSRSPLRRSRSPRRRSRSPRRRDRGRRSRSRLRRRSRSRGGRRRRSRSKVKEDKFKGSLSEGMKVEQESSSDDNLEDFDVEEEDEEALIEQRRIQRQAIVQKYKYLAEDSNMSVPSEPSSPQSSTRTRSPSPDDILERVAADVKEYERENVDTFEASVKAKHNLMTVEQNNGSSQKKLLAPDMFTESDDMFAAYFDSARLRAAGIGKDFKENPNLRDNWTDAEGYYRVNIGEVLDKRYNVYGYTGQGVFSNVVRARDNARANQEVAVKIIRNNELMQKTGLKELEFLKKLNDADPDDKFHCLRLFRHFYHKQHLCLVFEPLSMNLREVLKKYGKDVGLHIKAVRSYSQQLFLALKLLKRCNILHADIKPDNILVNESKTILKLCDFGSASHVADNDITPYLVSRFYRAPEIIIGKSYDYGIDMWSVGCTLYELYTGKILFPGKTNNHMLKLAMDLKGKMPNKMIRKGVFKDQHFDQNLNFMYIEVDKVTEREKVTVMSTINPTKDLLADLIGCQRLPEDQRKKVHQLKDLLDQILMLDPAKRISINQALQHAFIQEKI
The conditions noted are these: PRP4; 1 uM. The method, boiled down: as §1

Assay [6] has as its target T6, kinases of the scanMAX Kinase assay panel (Homo sapiens, UniProt Q13555).
T6 construct: purchased DiscoverX Co. (contract measurement) scanMAX Kinase assay panel
The conditions noted are these: CAMK2G; 1 uM. The method, boiled down: as §1

In assay [7] the target is T7, kinases of the scanMAX Kinase assay panel (Homo sapiens, UniProt Q5S007, G2019S).
T7 construct: purchased DiscoverX Co. (contract measurement) scanMAX Kinase assay panel
Particulars: LRRK2(G2019S); 1 uM. An outline of the steps:
as §1

Assay [8] addresses T8, kinases of the scanMAX Kinase assay panel (Homo sapiens, UniProt Q96RR4).
T8 construct: purchased DiscoverX Co. (contract measurement) scanMAX Kinase assay panel
Particulars: CAMKK2; 1 uM. An outline of the steps:
as §1

In assay [9] the target is T9, kinases of the scanMAX Kinase assay panel (Homo sapiens, UniProt Q9H2G2).
T9 construct: purchased DiscoverX Co. (contract measurement) scanMAX Kinase assay panel
T9 sequence (Q9H2G2 whole entry): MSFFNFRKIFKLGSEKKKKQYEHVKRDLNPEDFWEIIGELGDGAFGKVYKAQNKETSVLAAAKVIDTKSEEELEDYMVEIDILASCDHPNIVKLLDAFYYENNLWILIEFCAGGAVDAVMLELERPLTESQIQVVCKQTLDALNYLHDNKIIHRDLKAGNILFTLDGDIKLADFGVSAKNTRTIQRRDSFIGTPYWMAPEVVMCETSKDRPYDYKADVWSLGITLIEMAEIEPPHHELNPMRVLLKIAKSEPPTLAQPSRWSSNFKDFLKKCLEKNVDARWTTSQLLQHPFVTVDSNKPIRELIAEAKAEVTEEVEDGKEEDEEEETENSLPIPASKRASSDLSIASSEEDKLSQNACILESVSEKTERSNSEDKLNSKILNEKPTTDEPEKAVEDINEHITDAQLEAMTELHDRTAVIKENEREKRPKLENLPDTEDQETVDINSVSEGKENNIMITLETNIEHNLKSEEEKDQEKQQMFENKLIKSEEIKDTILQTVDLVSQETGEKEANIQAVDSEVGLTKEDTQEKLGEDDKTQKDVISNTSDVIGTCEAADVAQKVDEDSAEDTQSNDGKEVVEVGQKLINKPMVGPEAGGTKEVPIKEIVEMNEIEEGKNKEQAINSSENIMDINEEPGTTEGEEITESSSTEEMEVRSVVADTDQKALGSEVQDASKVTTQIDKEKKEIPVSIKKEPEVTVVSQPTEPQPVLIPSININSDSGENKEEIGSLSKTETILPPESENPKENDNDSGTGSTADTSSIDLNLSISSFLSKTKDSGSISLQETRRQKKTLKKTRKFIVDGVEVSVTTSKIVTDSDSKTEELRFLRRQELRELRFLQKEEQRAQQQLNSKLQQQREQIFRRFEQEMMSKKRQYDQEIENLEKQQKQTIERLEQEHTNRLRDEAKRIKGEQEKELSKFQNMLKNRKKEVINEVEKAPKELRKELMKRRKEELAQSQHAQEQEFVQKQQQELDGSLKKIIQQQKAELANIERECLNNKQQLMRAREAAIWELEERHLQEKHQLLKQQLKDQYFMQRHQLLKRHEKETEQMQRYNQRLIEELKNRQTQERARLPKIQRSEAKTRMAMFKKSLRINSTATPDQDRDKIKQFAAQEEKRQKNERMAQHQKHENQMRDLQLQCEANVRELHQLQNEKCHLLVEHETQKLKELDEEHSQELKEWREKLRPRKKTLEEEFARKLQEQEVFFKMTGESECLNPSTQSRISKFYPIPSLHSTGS
The conditions noted are these: kinase SLK; 1 uM in DMSO. The method, boiled down:
as §1

For assay [10], the target named is T10, kinases of the scanMAX Kinase assay panel (Homo sapiens, UniProt Q9HAZ1).
T10 construct: purchased DiscoverX Co. (contract measurement) scanMAX Kinase assay panel
T10 sequence (Q9HAZ1 whole entry): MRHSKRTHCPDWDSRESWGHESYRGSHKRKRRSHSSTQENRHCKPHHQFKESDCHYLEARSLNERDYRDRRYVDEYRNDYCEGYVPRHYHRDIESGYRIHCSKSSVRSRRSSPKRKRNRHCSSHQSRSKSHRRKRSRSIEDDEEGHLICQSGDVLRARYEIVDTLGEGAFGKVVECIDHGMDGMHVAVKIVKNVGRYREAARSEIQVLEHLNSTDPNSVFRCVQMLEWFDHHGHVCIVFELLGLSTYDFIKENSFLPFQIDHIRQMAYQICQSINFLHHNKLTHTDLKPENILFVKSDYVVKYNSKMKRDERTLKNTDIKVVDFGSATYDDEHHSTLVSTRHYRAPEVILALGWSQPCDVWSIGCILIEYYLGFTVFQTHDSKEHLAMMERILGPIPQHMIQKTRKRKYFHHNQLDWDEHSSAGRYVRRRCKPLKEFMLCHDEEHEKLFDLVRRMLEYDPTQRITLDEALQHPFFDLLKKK
Particulars: CLK4; 1 uM. An outline of the steps:
as §1

Assay [11] deals with T11, kinases of the scanMAX Kinase assay panel (Homo sapiens, UniProt Q9UEW8).
T11 construct: purchased DiscoverX Co. (contract measurement) scanMAX Kinase assay panel
Particulars: kinase STK39; 1 uM in DMSO. The method, boiled down: as §1

Structures are written as SMILES.

T6 sequence (Q13555 whole entry): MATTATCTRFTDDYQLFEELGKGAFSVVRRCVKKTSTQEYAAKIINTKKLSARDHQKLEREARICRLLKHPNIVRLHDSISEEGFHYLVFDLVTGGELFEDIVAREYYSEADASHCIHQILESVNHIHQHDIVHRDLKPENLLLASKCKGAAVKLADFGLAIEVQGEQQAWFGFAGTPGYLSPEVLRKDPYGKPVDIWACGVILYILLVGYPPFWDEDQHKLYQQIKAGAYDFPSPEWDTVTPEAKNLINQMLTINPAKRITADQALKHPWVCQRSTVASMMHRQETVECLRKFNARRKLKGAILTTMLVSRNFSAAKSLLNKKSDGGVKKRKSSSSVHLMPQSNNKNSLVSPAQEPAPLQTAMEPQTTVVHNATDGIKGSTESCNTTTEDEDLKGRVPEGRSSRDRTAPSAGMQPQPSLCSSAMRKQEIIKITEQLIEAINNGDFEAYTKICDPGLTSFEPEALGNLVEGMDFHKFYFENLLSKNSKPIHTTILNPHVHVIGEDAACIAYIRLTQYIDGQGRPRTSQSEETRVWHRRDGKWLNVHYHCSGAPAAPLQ

As to `CNc1nc(Nc2ccc(C(=O)N3CCOCC3)cc2OC)nc2[nH]cc(C#N)c12` [Example 1, 2-((2-methoxy-4-(morpholine-4-carbonyl)phenyl)amino)-4-(methylamino)-7H-pyrrolo[2,3-d]pyrimidine-5-carbonitrile], the remaining binding at 1 µM in assay [1] was 100%; in [2] it was 15%; in assay [3], 92%; in assay [4] it was 96%; in assay [5], 100%; in assay [6], 88%. Further, the remaining binding at 1 µM in assay [7] turned out to be 0%; in assay [8], 65%; in assay [9], 100%; in assay [10] it was 3.4%; in assay [11], 14%.
On to `CC1(Nc2nc(Nc3cnn([C@H]4CCN(C5COC5)C[C@@H]4F)c3Cl)nc3[nH]cc(C#N)c23)CC1` [Example 52, 2-((5-chloro-1-((3S,4S)-3-fluoro-1-(oxetane-3-yl)piperidine-4-yl)-1H-pyrazole-4-yl)amino)((1-methylcyclopropyl)amino)-7H-pyrrolo[2,3-d]pyrimidine-5-carbonitrile], for which the remaining binding at 1 µM in assay [1] came out at 76%; in assay [2], 0.25%; in assay [3], 0.1%; in assay [4], 81%; in assay [5], 19%; in assay [6], 53%. The remaining binding at 1 µM is 2.6% in assay [7]; 5.7% in assay [8]; 13% in [9]; 1.4% in [10]; 0% in assay [11].
`CCNc1nc(Nc2ccc(C(=O)N3CCC(N4CCOCC4)CC3)cc2OC)nc2[nH]cc(C(F)(F)F)c12` [Example 104, (4-((4-(ethylamino)-5-(trifluoromethyl)-7H-pyrrolo[2,3-d]pyrimidine-2-yl)amino)-3-methoxyphenyl)(4-morpholinopiperidine-1-yl)methanone]: the remaining binding at 1 µM in assay [1] came out at 95%; in assay [2], 3%; in assay [3] it was 64%; in [4], 94%; in assay [5], 89%; in assay [6], 80%. For the same compound, the remaining binding at 1 µM in [7] worked out at 2%; in [8], 20%; in assay [9], 97%; in assay [10] it was 4.1%; in assay [11], 30%.
